Reference: BindingDB's records for doi:10.1021/jm5002502 (St. John'S University, 2014)

Target: Poly [ADP-ribose] polymerase 1 (Homo sapiens, UniProt P09874)
Test: Inhibition of PARP-1 (unknown origin) using biotinylated NAD+ as substrate after 60 mins by spectrophotometry

Poly [ADP-ribose] polymerase 1, sequence (P09874 whole entry): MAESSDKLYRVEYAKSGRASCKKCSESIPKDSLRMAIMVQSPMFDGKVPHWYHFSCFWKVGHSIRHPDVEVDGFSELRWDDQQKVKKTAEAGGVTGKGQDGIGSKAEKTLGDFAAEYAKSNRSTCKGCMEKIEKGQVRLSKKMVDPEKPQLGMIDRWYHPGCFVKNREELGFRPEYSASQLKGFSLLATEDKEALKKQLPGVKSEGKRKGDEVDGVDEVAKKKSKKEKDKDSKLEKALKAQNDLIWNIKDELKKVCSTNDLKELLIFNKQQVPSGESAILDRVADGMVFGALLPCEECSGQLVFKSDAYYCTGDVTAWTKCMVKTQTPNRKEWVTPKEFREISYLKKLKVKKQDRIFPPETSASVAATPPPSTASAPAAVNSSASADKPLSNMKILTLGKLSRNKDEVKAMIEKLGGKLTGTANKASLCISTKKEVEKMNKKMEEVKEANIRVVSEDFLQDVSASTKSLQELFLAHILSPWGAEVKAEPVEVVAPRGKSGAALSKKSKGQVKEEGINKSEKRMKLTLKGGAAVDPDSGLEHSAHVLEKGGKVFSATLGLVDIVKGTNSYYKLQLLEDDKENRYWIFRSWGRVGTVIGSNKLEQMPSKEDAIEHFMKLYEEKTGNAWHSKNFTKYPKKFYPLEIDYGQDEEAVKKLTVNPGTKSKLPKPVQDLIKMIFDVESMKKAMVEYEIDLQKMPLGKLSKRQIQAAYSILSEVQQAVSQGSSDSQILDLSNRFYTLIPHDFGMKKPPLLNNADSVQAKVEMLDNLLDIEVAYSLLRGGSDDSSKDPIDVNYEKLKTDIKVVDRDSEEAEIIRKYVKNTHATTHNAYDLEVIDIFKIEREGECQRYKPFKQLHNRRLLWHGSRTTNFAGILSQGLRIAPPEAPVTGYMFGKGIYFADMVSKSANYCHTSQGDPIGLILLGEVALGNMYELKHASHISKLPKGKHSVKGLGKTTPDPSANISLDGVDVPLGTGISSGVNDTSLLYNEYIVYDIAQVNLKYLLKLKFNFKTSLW

Work on `CC1Cc2c(N)ccc(C(N)=O)c2O1` (stereo unspecified) yielded an IC50 of 4.65 µM.
